Measured values published in ChEMBL document CHEMBL1201862, “PubChem BioAssay data set” (2004).
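Cells were grown in 96-well plates and exposed to each compound for 48 hours at five concentrations; endpoints were interpolated linearly between bracketing concentrations, or set to the highest concentration if not reached. The concentration for 50% growth inhibition is given as GI50.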 The source made the active and inactive calls. Rule as the data show it: active = GI50 up to about 1.1 µM and inactive = higher.

How the values were obtained:
Experiment in all cases: NCI-60 cell line screen, 48 h
[1] = test system: OVCAR-8
[2] = test system: NCI-H460
[3] = test system: UACC-257
[4] = test system: MDA-MB-435
[5] = test system: SNB-75
[6] = test system: SN12C
[7] = test system: CAKI-1
[8] = test system: HL-60
[9] = test system: ACHN
[10] = test system: M14
[11] = test system: IGROV-1
[12] = test system: DU-145
[13] = test system: A549
[14] = test system: NCI/ADR-RES
[15] = test system: SW-620
[16] = test system: CCRF-CEM
[17] = test system: NCI-H226
[18] = test system: TK-10
[19] = test system: SF-295
[20] = test system: SK-MEL-5

Measured: GI50

O=NN(CCCl)C(=O)NC1CCC(=O)NC1=O (stereo not given)
inactive: [1] 50 µM | [2] 83.8 µM | [3] 335 µM | [4] 191 µM | [5] 60.5 µM | [6] 243 µM | [7] 270 µM | [8] 66.7 µM | [9] 428 µM | [10] 356 µM | [11] 365 µM | [12] 337 µM | [13] 182 µM | [14] 193 µM | [15] 67.8 µM | [16] 75.5 µM | [17] 232 µM | [18] 379 µM | [19] 30.3 µM | [20] 121 µM

O=C1C(NCCc2ccc(O)c(O)c2)=CC(=O)c2ncccc21
inactive: [1] 13.4 µM | [2] 9.46 µM | [3] 5.36 µM | [4] 1.7 µM | [5] 5.96 µM | [6] 10.1 µM | [7] 5.52 µM | [8] 15.8 µM | [9] 11.1 µM | [10] 14.7 µM | [11] 9.53 µM | [12] 9.86 µM | [13] 14.9 µM | [14] 14.4 µM | [15] 14.4 µM | [16] 3.22 µM | [17] 13.7 µM | [18] 36.2 µM | [19] 12.6 µM | [20] 2.93 µM

COc1ccc(C(c2ccccc2)N2C(=O)CCC2C(=O)O)cc1OC (stereo not given)
inactive: [1] > 100 µM | [2] > 100 µM | [3] > 100 µM | [4] > 100 µM | [5] > 100 µM | [6] > 100 µM | [7] > 100 µM | [8] > 100 µM | [9] > 100 µM | [10] > 100 µM | [11] > 100 µM | [12] > 100 µM | [13] > 100 µM | [14] > 100 µM | [15] > 100 µM | [16] > 100 µM | [17] > 100 µM | [18] > 100 µM | [19] > 100 µM | [20] > 100 µM

COC(=O)C1SC(SC)=NC12c1ccccc1Nc1ccccc12 (stereo not given)
inactive: [1] 33.3 µM | [2] 22.1 µM | [3] 25.7 µM | [4] 27 µM | [5] 51.1 µM | [6] 30.7 µM | [7] 37.3 µM | [8] 29.5 µM | [9] 36.3 µM | [10] 18.5 µM | [11] 30.3 µM | [12] 36.4 µM | [13] 28.3 µM | [14] 39.9 µM | [15] 36.6 µM | [16] 31.8 µM | [17] 53.6 µM | [18] 50 µM | [19] 32.7 µM | [20] 17.2 µM

c1ccc2sc(C3(N4CCCCCC4)CCCCC3)cc2c1
inactive: [1] 29.5 µM | [2] 18.8 µM | [3] 21.5 µM | [4] 25.3 µM | [5] 23.8 µM | [6] 20.6 µM | [7] 36.5 µM | [8] 24.2 µM | [9] 30.8 µM | [10] 19.3 µM | [11] 36.1 µM | [12] 29.4 µM | [13] 35.2 µM | [14] 21.8 µM | [15] 18.2 µM | [16] 16.7 µM | [17] 22.6 µM | [18] 22.8 µM | [19] 20.1 µM | [20] 17.5 µM

COc1cc(CN2CCCCC2)cc2cc(C(=O)O)c(=O)oc12
inactive: [1] > 100 µM | [2] > 100 µM | [3] > 100 µM | [4] > 100 µM | [5] > 100 µM | [6] > 100 µM | [7] > 100 µM | [8] > 100 µM | [9] > 100 µM | [10] > 100 µM | [11] > 100 µM | [12] > 100 µM | [13] > 100 µM | [14] > 100 µM | [15] > 100 µM | [16] > 100 µM | [17] > 100 µM | [18] > 100 µM | [19] > 100 µM | [20] > 100 µM
